{"source": "patent US9732032B2", "about": "“3-aminocyclopentane carboxamide derivatives” (Merck Patent GmbH, priority 2012, dated 2017)"}
{"molecular_target": "T1, human recombinant full-length fatty acid synthase (FASN) (Homo sapiens, UniProt P49327)", "T1 construct": "human recombinant full-length fatty acid synthase; made in house; host or cells: SF9 cells", "T1 sequence (P49327 whole entry)": "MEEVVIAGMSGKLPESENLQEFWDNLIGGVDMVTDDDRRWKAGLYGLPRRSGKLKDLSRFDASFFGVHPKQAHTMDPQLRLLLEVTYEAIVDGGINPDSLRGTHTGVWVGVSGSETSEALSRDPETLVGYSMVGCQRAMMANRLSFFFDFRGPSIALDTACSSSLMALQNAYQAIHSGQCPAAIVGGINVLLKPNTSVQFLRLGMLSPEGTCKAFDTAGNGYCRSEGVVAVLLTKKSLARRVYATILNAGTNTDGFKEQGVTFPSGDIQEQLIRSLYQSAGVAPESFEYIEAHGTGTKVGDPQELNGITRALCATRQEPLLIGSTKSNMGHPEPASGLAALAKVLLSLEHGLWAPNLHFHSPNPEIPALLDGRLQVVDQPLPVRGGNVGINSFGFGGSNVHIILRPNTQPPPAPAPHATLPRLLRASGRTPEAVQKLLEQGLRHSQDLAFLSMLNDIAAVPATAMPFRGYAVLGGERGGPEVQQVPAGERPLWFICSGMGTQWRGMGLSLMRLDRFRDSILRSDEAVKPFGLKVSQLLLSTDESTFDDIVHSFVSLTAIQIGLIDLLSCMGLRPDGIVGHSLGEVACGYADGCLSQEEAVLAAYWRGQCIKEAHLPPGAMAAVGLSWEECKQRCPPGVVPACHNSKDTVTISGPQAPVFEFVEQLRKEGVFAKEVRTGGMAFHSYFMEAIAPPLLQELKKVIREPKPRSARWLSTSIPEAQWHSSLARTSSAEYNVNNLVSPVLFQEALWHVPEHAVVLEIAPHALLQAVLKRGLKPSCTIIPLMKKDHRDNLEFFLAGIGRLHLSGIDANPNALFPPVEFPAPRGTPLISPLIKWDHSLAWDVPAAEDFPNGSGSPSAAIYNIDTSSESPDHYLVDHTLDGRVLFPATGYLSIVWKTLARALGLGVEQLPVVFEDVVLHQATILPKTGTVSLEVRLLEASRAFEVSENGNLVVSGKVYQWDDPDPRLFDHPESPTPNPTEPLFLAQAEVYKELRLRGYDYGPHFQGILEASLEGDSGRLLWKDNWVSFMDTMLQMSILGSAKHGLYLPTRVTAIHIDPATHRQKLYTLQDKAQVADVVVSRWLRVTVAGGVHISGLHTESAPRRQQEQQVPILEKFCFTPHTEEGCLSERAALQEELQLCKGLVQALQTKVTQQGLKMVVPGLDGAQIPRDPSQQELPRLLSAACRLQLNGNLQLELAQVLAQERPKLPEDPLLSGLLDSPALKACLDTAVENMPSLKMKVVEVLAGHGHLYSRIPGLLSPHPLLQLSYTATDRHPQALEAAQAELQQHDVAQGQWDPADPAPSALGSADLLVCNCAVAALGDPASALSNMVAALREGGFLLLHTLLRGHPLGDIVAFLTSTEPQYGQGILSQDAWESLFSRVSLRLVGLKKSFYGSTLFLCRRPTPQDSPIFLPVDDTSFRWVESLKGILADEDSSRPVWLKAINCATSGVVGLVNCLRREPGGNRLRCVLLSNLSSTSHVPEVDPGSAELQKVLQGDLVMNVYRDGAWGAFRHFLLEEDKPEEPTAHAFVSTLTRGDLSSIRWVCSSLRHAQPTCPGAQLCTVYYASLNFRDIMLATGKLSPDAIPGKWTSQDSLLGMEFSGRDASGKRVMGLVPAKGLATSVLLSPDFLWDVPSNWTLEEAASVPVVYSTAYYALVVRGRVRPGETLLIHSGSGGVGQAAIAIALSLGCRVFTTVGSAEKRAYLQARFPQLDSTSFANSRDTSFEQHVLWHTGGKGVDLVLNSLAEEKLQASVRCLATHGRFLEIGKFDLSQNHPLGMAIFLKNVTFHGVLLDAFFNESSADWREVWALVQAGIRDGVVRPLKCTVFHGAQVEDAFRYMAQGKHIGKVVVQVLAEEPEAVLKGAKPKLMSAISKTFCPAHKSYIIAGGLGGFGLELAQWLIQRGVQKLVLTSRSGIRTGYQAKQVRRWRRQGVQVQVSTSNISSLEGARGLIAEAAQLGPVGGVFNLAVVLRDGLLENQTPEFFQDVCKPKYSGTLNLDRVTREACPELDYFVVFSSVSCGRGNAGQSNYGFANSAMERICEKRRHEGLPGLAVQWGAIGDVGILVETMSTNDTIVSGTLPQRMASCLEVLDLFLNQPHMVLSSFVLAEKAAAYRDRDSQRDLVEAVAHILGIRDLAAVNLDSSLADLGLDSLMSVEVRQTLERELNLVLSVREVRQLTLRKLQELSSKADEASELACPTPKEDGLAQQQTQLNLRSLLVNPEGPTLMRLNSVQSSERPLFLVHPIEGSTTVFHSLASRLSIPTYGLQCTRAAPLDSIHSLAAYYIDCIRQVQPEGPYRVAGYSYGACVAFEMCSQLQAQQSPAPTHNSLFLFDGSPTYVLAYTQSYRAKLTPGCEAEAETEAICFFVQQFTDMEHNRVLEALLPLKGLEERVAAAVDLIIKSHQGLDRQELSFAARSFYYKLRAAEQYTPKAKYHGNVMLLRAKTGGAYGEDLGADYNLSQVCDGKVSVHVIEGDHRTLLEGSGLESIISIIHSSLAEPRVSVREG", "assay": "Biochemical activity testing of human fatty acid synthase FASN (NADPH fluorescence intensity assay)", "settings": "NADPH fluorescence decrease (ex 340 nm / em 460 nm), 30 minutes at room temperature, read-out: IC50 FASN (enzyme assay)", "source_text": "aq (aqueous), h (hour), g (gram), L (liter), mg (milligram), MHz (Megahertz), (melting point), eq (equivalent), mL (milliliter), L (microliter), ACN (acetonitrile), AcOH (acetic acid), CDCl3 (deuterated chloroform), CD3OD (deuterated methanol), CH3CN (acetonitrile), c-hex (cyclohexane), DCC (dicyclohexyl carbodiimide), DCM (dichloromethane), DIC (diisopropyl carbodiimide), DIEA (diisopropylethyl-amine), DMF (dimethylformamide), DMSO (dimethylsulfoxide), DMSO-d6 (deuterated dimethylsulfoxide), EDC (1-(3-dimethyl-amino-propyl)-3-ethylcarbodiimide), ESI (Electro-spray ionization), EtOAc (ethyl acetate), Et2O (diethyl ether), EtOH (ethanol), HATU (dimethylamino-([1,2,3]triazolo[4,5-b]pyridin-3-yloxy)-methylene]-dimethylammonium hexafluorophosphate), HPLC (High Performance Liquid Chromatography), i-PrOH (2-propanol), K2CO3 (potassium carbonate), LC (Liquid Chromatography), MeOH (methanol), MgSO4 (magnesium sulfate), MS (mass spectrometry), MTBE (Methyl tert-butyl ether), NaHCO3 (sodium bicarbonate), NaBH4 (sodium borohydride), NMM (N-methyl morpholine), NMR (Nuclear Magnetic Resonance), PyBOP (benzotriazole-1-yl-oxy-trispyrrolidino-phosphonium hexafluorophosphate), RT (room temperature), Rt (retention time), SPE (solid phase extraction), TBTU (2-(1-H-benzotriazole-1-yl)-1,1,3,3-tetramethyluromium tetrafluoro borate), TEA (triethylamine), TFA (trifluoroacetic acid), THF (tetrahydrofuran), TLC (Thin Layer Chromatography), UV (Ultraviolet). Description of the In Vitro Assays Abbreviations: GST=Glutathione-S-transferase FRET=Fluorescence resonance energy transfer HTRF®=(homogenous time resolved fluorescence) HEPES=4-(2-hydroxyethyl)-1-piperazine ethanesulfonic acid buffer DTT=Dithiothreitol BSA=bovine serum albumin CHAPS=detergent; CHAPS=3[(3-cholamidopropyl)dimethylammonio]-1-propanesulfonate Biochemical Activity Testing of Human Fatty Acid Synthase FASN\nFatty acid synthase FASN is a multifunctional enzyme with seven catalytic activities thereby synthesising long chain fatty acids especially palmitoyl-CoA in the presence of co-factor NADPH starting from the substrates acetyl-CoA and malonyl-CoA. The reductive synthesis is realized by the oxidation of NADPH to NADP. Since NADPH has a high fluorescence intensity quantum yield compared to NADP with excitation at 340 nm and emission at 460 nm, the reaction can be monitored via the decrease in fluorescence intensity. The biochemical FASN activity testing was performed as 384 well two-time-point kinetic fluorescence intensity assay format in Greiner low volume medium binding 384-well black microtiter plates in a total assay volume of 8 μl and was used for high throughput screen. In each well 3 μl 40 nM human recombinant full-length fatty acid synthase (produced in-house in SF9 cells) were dispensed in the following assay buffer: 50 mM potassium phosphate buffer pH 7.0, 0.005% (w/v) BSA, 2 mM Glutathione, 0.02% Tween-20. Then 2 μl of 200 μM NADPH in assay buffer were added, followed by the addition of the test compounds in 10 dilution concentrations starting with 30 μM (final concentration) to get a final DMSO content of 1% (v/v). The mixture was incubated for at least 15 min at room temperature. After the pre-incubation the enzymatic reaction was started by the addition of 2 μl substrate solution (80 μM acetyl-CoA, 240 μM malonyl-CoA). A first fluorescence intensity measurement (time point one) was performed with an Envision multimode reader (Perkin Elmer LAS Germany GmbH) at excitation wavelength 340 nm (lamp mode) and emission wavelength 460 nm. The reaction was incubated for 30 minutes at room temperature. After this the fluorescence intensity was measured again in the Envision using the same parameters as described above (second time point measurement). The data were analysed by subtracting the first time point measurement value from the second time point measurement value (after the enzymatic reaction). The differences of the emission signals were determined. […]", "units": {"IC50": "nM"}}
{"smiles": "C[C@@H](CO)NC(=O)[C@H]1CC[C@@H](N(C)C(=O)c2ccc(-c3nc4ccccc4o3)cc2)C1", "note": "[Compound A90, 4-benzoxazol-2-yl-N-[(1R,3S)-3-((S)-2-hydroxy-1-methyl-ethylcarbamoyl)-cyclopentyl]-N-methyl-benzamide]", "IC50": "300 to 3000"}
{"smiles": "C[C@H](CO)NC(=O)[C@H]1CC[C@@H](N(C)C(=O)c2ccc(-c3nc4ccccc4o3)cc2)C1", "note": "[Compound A91, 4-benzoxazol-2-yl-N-[(1R,3S)-3-((R)-2-hydroxy-1-methyl-ethylcarbamoyl)-cyclopentyl]-N-methyl-benzamide]", "IC50": "< 300"}
{"smiles": "COC[C@H](C)NC(=O)[C@H]1CC[C@@H](N(C)C(=O)c2ccc(-c3nc4ccccc4o3)cc2)C1", "note": "[Compound A92, 4-benzoxazol-2-yl-N-[(1R,3S)-3-((S)-2-methoxy-1-methyl-ethylcarbamoyl)-cyclopentyl]-N-methyl-benzamide]", "IC50": "300 to 3000"}
{"smiles": "CCNC(=O)[C@H]1CC[C@@H](N(C)C(=O)c2ccc(-c3nc4cc(S(N)(=O)=O)ccc4o3)cc2)C1", "note": "[Compound A93, N-((1R,3S)-3-ethylcarbamoyl-cyclopentyl)-N-methyl-4-(5-sulfamoyl-benzooxazol-2-yl)-benzamide]", "IC50": "3000 to 50000"}
{"smiles": "CCNC(=O)[C@H]1CC[C@@H](N(C)C(=O)c2ccc(-c3nc4cc(F)cc(F)c4o3)cc2)C1", "note": "[Compound A96, 4-(5,7-difluoro-benzoxazol-2-yl)-N-((1R,3S)-3-ethylcarbamoyl-cyclopentyl)-N-methyl-benzamide]", "IC50": "< 300"}
{"smiles": "CCNC(=O)[C@H]1CC[C@@H](N(C)C(=O)c2ccc(-c3nc4ccc(F)cc4o3)cc2)C1", "note": "[Compound A98, N-((1R,3S)-3-ethylcarbamoyl-cyclopentyl)-4-(6-fluoro-benzooxazol-2-yl)-N-methyl-benzamide]", "IC50": "< 300"}
{"smiles": "CN(C(=O)c1ccc(-c2nc3ccccc3o2)cc1)[C@@H]1CC[C@H](C(=O)NC(C)(C)CO)C1", "note": "[Compound A99, 4-benzoxazol-2-yl-N-[(1R,3S)-3-(2-hydroxy-1,1-dimethyl-ethylcarbamoyl)-cyclopentyl]-N-methyl-benzamide]", "IC50": "300 to 3000"}
{"smiles": "CCNC(=O)[C@H]1CC[C@@H](N(C)C(=O)c2ccc(-c3nc4cc(F)c(F)cc4o3)cc2)C1", "note": "[Compound A101, 4-(5,6-difluoro-benzoxazol-2-yl)-N-((1R,3S)-3-ethylcarbamoyl-cyclopentyl)-N-methyl-benzamide]", "IC50": "< 300"}
{"smiles": "CCNC(=O)[C@H]1CC[C@@H](N(C)C(=O)c2ccc(-c3cccnc3)cc2)C1", "note": "[Compound A102, N-((1R,3S)-3-ethylcarbamoyl-cyclopentyl)-N-methyl-4-pyridin-3-yl-benzamide]", "IC50": "< 300"}
{"smiles": "CCNC(=O)[C@H]1CC[C@@H](N(C)C(=O)c2ccc(-c3ccc(C#N)cc3)cc2)C1", "note": "[Compound A103, 4′-cyano-biphenyl-4-carboxylic acid ((1R,3S)-3-ethylcarbamoyl-cyclopentyl)-methyl-amide]", "IC50": "< 300"}
{"smiles": "CCNC(=O)[C@H]1CC[C@@H](N(C)C(=O)c2ccc(-c3ccc(F)cc3)cc2)C1", "note": "[Compound A104, 4′-fluoro-biphenyl-4-carboxylic acid ((1R,3S)-3-ethylcarbamoyl-cyclopentyl)-methyl-amide]", "IC50": "< 300"}
{"smiles": "CN(C(=O)c1ccc(-c2nc3ccccc3o2)cc1)[C@@H]1CC[C@H](C(=O)NCCO)C1", "note": "[Compound A106, 4-benzoxazol-2-yl-N-[(1R,3S)-3-(2-hydroxy-ethylcarbamoyl)-cyclopentyl]-N-methyl-benzamide]", "IC50": "< 300"}
{"smiles": "CCNC(=O)[C@H]1CC[C@@H](N(C)C(=O)c2ccc(-c3cccc4[nH]ncc34)cc2)C1", "note": "[Compound A107, N-((1R,3S)-3-ethylcarbamoyl-cyclopentyl)-4-(1H-indazol-4-yl)-N-methyl-benzamide]", "IC50": "< 300"}
{"smiles": "CN(C(=O)c1ccc(-c2nc3ccccc3o2)cc1)[C@@H]1CC[C@H](C(=O)NC2(CO)CC2)C1", "note": "[Compound A108, 4-benzoxazol-2-yl-N-[(1R,3S)-3-(1-hydroxymethyl-cyclopropylcarbamoyl)-cyclopentyl]-N-methyl-benzamide]", "IC50": "300 to 3000"}
